Assay results reported in patent US20070224301A1, “Compounds from an extract of Artemisia and methods for treating disorders” (priority 2006, published 2007).
Values belong to the molecule of their own block, whether it stands above or below them.

Legend:
[1] = molecular target: T1, human recombinant ALR2 enzyme (Homo sapiens, UniProt P15121); assay: ALR2 enzyme assay (decrease in NADPH absorbance at 340 nm); format: biochemical; settings: for ALR2 inhibitory activity (in words, compared with quercitrin): 3.75 μg/ml where stated
T1 construct: purchased Wako Chemicals USA Inc
Experimental: Human recombinant ALR2 enzyme was purchased from Wako Chemicals USA Inc. Enzyme activity was measured at each step of purification of the extract, by monitoring the decrease in NADPH absorbance at a wavelength of 340 nm (Nishimura et al., Purification and characterization of recombinant aldose reducatse expressed in baculovirus system. Biochim. Biophys. acta. pp. 1078-1171 (1991)), using a spectrophotometer. One hundred micro liters of the reaction mixture contained 100 mM sodium phosphate buffer (pH 6.2), 0.15 mM NADPH, 10 mM DL-Glyceraldehyde and 1 mU of human recombinant ALR2 enzyme. The samples were prepared in 10% DMSO and the final concentration of the samples or the positive control quercitrin was 3.75 μg/ml. The reaction was initiated by adding the enzyme and the change in NADPH absorbance was monitored over seven minutes.

PTP-1B = molecular target: T2, PTP-1B (Homo sapiens, UniProt P18031); assay: PTP-1B activity by PNPP hydrolysis after immunoprecipitation from treated skeletal muscle cells; format: cell-based; settings: 20 μg/ml of media; for PTP-1B inhibitory activity (decrease of PTP-1B activity): primary skeletal muscle culture from subjects with type 2 diabetes, 16 hours
T2 construct: Cell lysate was prepared and PTP-1B was immunoprecipitated with specific antibody; endogenous in cells; host or cells: primary skeletal muscle cell culture (subjects with type 2 diabetes)
T2 sequence (P18031 1-435): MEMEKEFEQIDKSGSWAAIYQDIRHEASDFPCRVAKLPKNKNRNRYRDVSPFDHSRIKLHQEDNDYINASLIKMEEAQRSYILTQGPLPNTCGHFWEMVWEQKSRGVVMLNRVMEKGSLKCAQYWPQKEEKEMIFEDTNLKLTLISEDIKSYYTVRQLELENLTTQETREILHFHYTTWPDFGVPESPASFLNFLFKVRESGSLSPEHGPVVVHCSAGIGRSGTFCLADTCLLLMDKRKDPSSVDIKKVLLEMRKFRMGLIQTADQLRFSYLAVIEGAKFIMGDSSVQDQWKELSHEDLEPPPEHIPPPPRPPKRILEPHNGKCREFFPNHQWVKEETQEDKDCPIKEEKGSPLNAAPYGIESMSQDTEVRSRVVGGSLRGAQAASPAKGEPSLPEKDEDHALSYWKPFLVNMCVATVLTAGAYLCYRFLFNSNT
Experimental: The activity of PTP-1B was assayed by hydrolysis of p-nitrophenol phosphate (PNPP). Skeletal muscle cells were incubated overnight (16 hours) with test substance (extract, fractions or pure compounds) at 20 μg/ml of media. Cell lysate was prepared and PTP-1B was immunoprecipitated with specific antibody (Upstate Biotechnology, Lake Placid, N.Y.). The immunoprecipitate was incubated in Phosphatase Reaction Buffer (20 mmol/L HEPES, pH 7.4, 150 mmol/L NaCl, 5 mM dithiothreitol, 1 mmol/L PNPP) for 20 minutes at 37° C. The reaction was stopped with 0.2 mol/L NaOH, and the absorbance at 410 nm was measured. The reactions were run in triplicate (Moeslein et al., The CLK family kinases, CLK1 and CLK2, phosphorylate and activate the tyrosine phosphatase, PTP-1B. J Biol Chem, 274:26697-26704 (1999)).

PEPCK gene expression = assay: PEPCK gene inhibition assay (Dex/cAMP-induced, qPCR) in H4IIE hepatoma cells; format: cell-based, rat; settings: 25 μg/ml
Experimental: H4IIE hepatoma cells (ATCC CRL-1600) were plated in 24-well tissue culture plates (Greiner Bio One) and were grown to confluence in Dulbecco's modified Eagle's medium (DMEM) containing 2.5% (v/v) newborn calf serum and 2.5% (v/v) fetal calf serum. Cells were treated for 8 hours with 500 nM dexamethasone and 0.1 mM cAMP (Dex/cAMP, both Sigma) to induce PEPCK gene expression and different concentrations or volumes of each of the tested compounds, plant extract or […] of Insulin. The fractions were tested at 50 μg/ml of media and the compounds were tested at the doses of 2.5 μg/ml, 5 μg/ml and 10 μg/ml and 25 μg/ml. Three wells were allocated for each treatment as well as for a negative control (untreated cells).
Total RNA was extracted from H4IIE rat hepatoma cells using Trizol reagent (Invitrogen Inc.) following the manufacturer instructions. RNA was quantified spectro-photo-metrically by absorption measurements at 260 nm and 280 nm using the NanoDrop system (NanoDrop Technologies Inc. Delware, USA). Quality of RNA was assessed by separation in gel-electrophoresis. […]
The synthesized cDNAs were diluted 4-fold. […] The other components of the PCR reactions were 0.5 μl of 6 μM gene specific primers (synthesized by IDT Inc. USA), 12.5 μl of Brilliant SYBR green PCR master mix (2×) (Stratagene, La Jolla, Calif.) containing green jump-start Taq ready mix. […]

PTP-1B mRNA = assay: Quantitative real time PCR for PTP-1B gene expression; format: cell-based; settings: skeletal muscle cells, 20 μg/ml of media
Experimental: Cells were incubated overnight (16 hours) with test substance (extract, fractions or pure compounds) at 20 μg/ml of media and harvested from the culture treatments at the designated time points. After extraction and quantification of RNA, quantitative real time PCR (qPCR) analysis was carried out using Taqman® one-step RT-PCR Master Mix (Applied Biosystems, Branchburg, N.J.). 20 ng of total RNA were added per 50 μl reaction with sequence-specific primers (200 nM) and Taqman® probes (200 nM) as indicated here, PTP-1B probe; 5′FAM d(AGTGATGGAGAAAGGTT)BHQ-1 3′. PTP-1B forward primer; 5′ d([…])3′ and PTP-1B reverse primer; 5′ d([…])3′. Primers and probes were designed by and purchased from Applied Biosystems. qPCR assays were carried out in triplicate on an ABI Prism 7700 sequence detection system. […] The threshold was set above the non-template control background and within the linear phase of target gene amplification to calculate the cycle number at which the transcript was detected (denoted CT). Gene expression values were calculated based on the standard curve of each target gene (RNA of control cells with two-fold serial dilutions from 200 ng to 3.125 ng) and normalized by the reference housekeeping gene β-Actin (1). Results were expressed as percentage change of control (Applied Biosystems (2001) Applied Biosystems User Bulletin Number 2, Foster City, Calif.).

inhibition at 3.75 µg/mL ([1]; 3.75 μg/ml): 58.2%
SMILES: COc1ccc(CCC(=O)c2ccc(O)cc2O)cc1 (single isomer, unassigned) [F7-9/P3, 2′,4′-dihydroxy-4-methoxydihydrochalcone]

PTP-1B inhibitory activity (decrease of PTP-1B activity) (PTP-1B): ≤ 26%
SMILES: COc1ccc(CCC(=O)c2ccc(O)cc2O)cc1 [Compound 4, 2′,4′-dihydroxy-4-methoxydihydrochalcone]
repression of dexamethazone/cAMP-induced PEPCK gene expression (PEPCK gene expression): more than 50% | repression of dexamethazone/cAMP-induced PEPCK gene expression (PEPCK gene expression; listed as DMDC): more than 50% | reduction of PTP-1B mRNA expression (PTP-1B mRNA): 29%

PTP-1B inhibitory activity (decrease of PTP-1B activity) (PTP-1B): ≤ 36%
SMILES: COc1ccc(C(=O)CCc2ccc(O)cc2)c(O)c1 [Compound 5, 2′,4-dihydroxy-4′-methoxydihydrochalcone]

Second part, the molecule before the results:

SMILES: O=C(/C=C/c1ccc(O)c(O)c1)OC1CC(O)(C(=O)O)CC(O)C1OC(=O)/C=C/c1ccc(O)c(O)c1 (single isomer, unassigned) [Sub-fraction 5-7, 4,5-Di-O-caffeoylquinic acid]
greater inhibition of ALR2 than that caused by quercitrin ([1]; 3.75 μg/ml): 19% | inhibition at 3.75 µg/mL ([1]; 3.75 μg/ml): 78%

SMILES: O=C(/C=C/c1ccc(O)c(O)c1)OC1CC(O)(C(=O)O)CC(O)C1OC(=O)/C=C/c1ccc(O)c(O)c1 (stereo not shown) [Compound 1, 4,5-Di-O-caffeoylquinic acid]
ALR2 inhibitory activity (in words, compared with quercitrin) [1]: highest inhibitory activity

SMILES: O=C(CCc1ccc(O)cc1)c1ccc(O)cc1O [Compound 2, Davidigenin]
ALR2 inhibitory activity (in words, compared with quercitrin) [1]: shows ALR2 inhibition activity

SMILES: COc1cc(O)c2c(c1)O[C@H](c1ccc(O)cc1)CC2=O [Compound 6, Sakuranetin]
PTP-1B inhibitory activity (decrease of PTP-1B activity) (PTP-1B): ≤ 50% | PTP-1B inhibitory activity (in words) (PTP-1B; skeletal muscle cells): decrease PTP-1B activity

SMILES: C[C@@H]1O[C@@H](Oc2c(-c3ccc(O)c(O)c3)oc3cc(O)cc(O)c3c2=O)[C@H](O)[C@H](O)[C@H]1O [quercitrin, reference compound]
inhibition at 3.75 µg/mL ([1]; 3.75 μg/ml): 54%
